Data published in patent publication US20050079176A1, “Treating stress response with chemokine receptor ccr5 modulators” (priority 2002, published 2005).
Several values for one entry are separate records, joined by “and”; a condition that tells them apart may be missing. Identical values can stand only once. Entries after “also recorded” stand apart in the source; their conditions may differ.

Experiments:
[1] = system: Cynomolgus macaques (Macaca fascicularis); test: Fever suppression after cardiac allotransplantation (telemetry body temperature, behaviour); assay type: in vivo; details: for monkeys that did not develop a fever (temperature greater than 38.5° C.): while recovering from transplantation, seven monkeys treated with CCR5 antagonist (alone or with cyclosporin)
IL8 = test: Cytometric Bead Array Human Inflammation Kit, serum/plasma on day of explant: IL8; assay type: in vivo, cynomologous monkeys; details: Compound A-treated monkeys
Protocol: (§1) Serum and plasma samples taken from the cynomologous monkeys in Example 1 on the day of explant (i.e., the day of graft rejection) were analyzed using the BD Pharmingen Cytometric Bead Array Human Inflammation Kit, which can measure IL1-β, IL6, IL8, IL10, IL12p70 and TNF-α. Reagents to detect IL6, IL8 and TNF-α have been shown by the manufacturer to cross react with rhesus and cynomologus monkey proteins. At the time of the assay, reagents to measure IL1-beta and IL12p70 had not yet been tested for cross reactivity to non-human primate proteins.
Samples were assayed in the manner described in the manufacturer's protocol booklet; i.e., “Human Inflammation Kit—Instruction Manual” (BD Biosciences, Cat. No. 551811, pdf copy available at www.bdbiosciences.com). Briefly, assay standards were reconstituted with assay diluent and diluted in two fold steps by serial dilution. Capture beads were mixed and distributed into an appropriate number of 12×75 mm polystyrene tubes. Standards or samples were added to the tubes and incubated in the dark at room temperature for 1.5 hours. The incubated tubes were washed once and phycoerythrin (PE)-labeled detection antibody reagent was added. Samples were again incubated in the dark at room temperature for 1.5 hours. […] Flow cytometer data was acquired using a Becton Dickinson FACSCalibur and analyzed with Becton Dickinson CBA Software.

[2] = system: IL6 mRNA expression in RANTES-stimulated macrophages; test: Cytokine mRNA expression (TaqMan) in RANTES-stimulated human macrophages: IL6; assay type: cell-based; details: RANTES 250 nM
Protocol: (§2) Human monocytes were isolated white blood cells concentrated from units of blood (i.e., leukopaks) from normal donors. To enhance CCR5 expression, the monocytes were cultured under suspension conditions in Teflon jars for 2 days in media supplemented with 12% fetal bovine serum. 10^6 cells were seeded and allowed to attach for over 2 hours in 6-well tissue culture plates. Cells were pre-incubated with either dimethylsulfoxide (DMSO; vehicle control) or Compound A at various concentrations for 1 hour, after which RANTES (the CCR5 agonist/ligand; Pepro Tech Inc.) was added at 250 nM, or, alternatively, media was added as a control. The cells were incubated at 37° C. for 24 hours, after which the media were removed and centrifuged to precipitate the non-adherent cells. Both the adhered and non-adhered cells were lysed and subjected to mRNA isolation, and the mRNA isolate was analyzed for cytokine expression by quantitative real time PCR (TaqMan). The relative mRNA-fold induction of cytokine gene expression in the RANTES-stimulated macrophages was calculated relative to day 2 non-stimulated, non-treated controls (i.e. fold induction=1 on day 2 for controls), as well as fold mRNA induction relative to vehicle (DMSO) (0 nM) control RANTES stimulated cells.

CCR5 receptor = molecular target: T1, CCR5 receptor (Macaca fascicularis, UniProt P61814); test: Receptor occupancy corresponding to plasma concentration; assay type: binding; details: at a concentration of 100 nM
T1 construct: endogenous in cells; host or cells: cynomolgus monkey (in vivo, CCR5-bearing leukocytes)

IL6 [3] = test: Serum IL6 by DuoSet ELISA pre and post heterotopic heart transplant; assay type: in vivo, cynomolgus monkeys
Protocol: IL1β and IL6 can be measured using the DuoSet ELISA development kits from R&D Systems (Minneapolis, Minn.), following the directions of the manufacturer. Briefly, plates are coated with capture antibody [mouse anti-human IL1β (2 μg/ml) or mouse anti-human IL6 (4 μg/ml)] and detection antibodies are used at 100 ng/ml (biotinylated goat anti-human IL1β) or 200 ng/ml (biotinylated goat anti-human IL6). Standards are prepared with recombinant protein (3.9-250 pg/ml for IL1β and 4.7-300 pg/ml for IL6). Streptavidin conjugated to horseradish peroxidase and H2O2/tetramethylbenzidine are used for color development. Optical density (OD) is measured at 450 nm, with correction at 570 nm.
Serum samples were taken from the cynomolgus monkeys in Example 1 at various time points pre- and post-transplantation. The samples were diluted 1:2, in PBS/0.1% BSA/0.05% Tween 20. (PBS=phosphate buffered saline; BSA=bovine serum albumin.) IL6 levels (pg/ml) in pre and post heterotopic heart transplant in serum from the cynomolgus monkeys treated with Compound A were determined obtained in accordance with the above-described procedure.

[4] = system: IL1-beta mRNA expression in RANTES-stimulated macrophages; test: Cytokine mRNA expression (TaqMan) in RANTES-stimulated human macrophages: IL1-beta; assay type: cell-based; details: RANTES 250 nM
Protocol: as §2

CCR5+ cells = test: Double-label immunofluorescence microscopy of leukocytes infiltrating rejecting allografts; assay type: in vivo, Macaca fascicularis; details: in association with CCR5 blockade
From the text: Double-label immunofluorescence microscopy using antibodies specific for CD3, CD68, CD11b, CCR5 and CXCR3 was used to characterize leukocyte populations infiltrating acutely rejecting (days 4, 6) cynomolgus cardiac allografts. CCR5 and CXCR3 are prominent on monocytes/macrophages and to a lesser extent on T-cells in rejecting cynomolgus heart allografts. Co-localization of CCR5 and CXCR3 to the same cells was common, particularly on the […] monocyte/macrophage population. Infiltration of CCR5+ cells was inhibited in association with CCR5 blockade. Graft failure was identified by a decrease in heart rate and ST elevation (associated with ischemia) on EKG and a decrease in arterial line pressure. […] (Note: n=7 refers to the data for the 3 control (i.e., saline) monkeys in this experiment plus data for 4 animals from a historic database that were scored as controls in which cyno cardiac allografts were rejected in the absense of immunosupression in a manner identical to the three controls in this experiment.)

[5] = Plasma trough concentrations by LC-MS/MS; assay type: in vivo, Macaca fascicularis; details: cynomolgus plasma, Compound A i.v. b.i.d.
[6] = system: cynomolgus cardiac allografts; test: Cardiac allograft survival / graft function after heterotopic transplantation; assay type: in vivo, Macaca fascicularis
From the text: Cynomolgus macaques (Macaca fascicularis), weighing 2.4-4.7 kg, and ranging in estimated age from 2.2-5.5 years were selected as organ recipients. Donors were matched to recipients by AB blood type compatibility as tested by New York University, Nelson Institute of Environmental Medicine, Tuxedo, N.Y. MHC class II mismatch was assured by a stimulation index (SI)>3 in paired animals in unidirectional mixed lymphocyte reaction (MLR) using potential donor lymphocytes as stimulators and potential recipient peripheral blood mononuclear cells (PBMCs) as responders. Animals were matched by assigning pairs with maximal MLR response within groups of blood type compatible animals.
Donor operation: After systemic heparinization (70 units/kg, Elkins-Sinn Inc., Cherry Hill, N.J.) and collection of donor blood during equivolemic saline infusion, diastolic arrest of the donor heart was induced with University of Wisconsin organ preservation solution (15-20 cc/kg, 4° C.) via the aortic root. The heart was explanted and prepared: The mitral valve was rendered incompetent surgically, to prevent left ventricular distention, and an atrial septal defect was created by excising the fossa ovalis, to allow blood entering the left heart through the thebesian circulation to transit to and be ejected from the right heart.
Recipient operation: All recipient animals underwent traditional non-working intraabdominal cardiac allograft transplantation using a single clamp technique, wherein the donor aorta was anastomosed end-to-side to the infrarenal abdominal aorta, and the donor pulmonary artery was anastomosed to the adjacent vena cava. Heparin (70 Units/kg) (a Unit is equivalent to 3 mg/kg of body weight) was administered to the recipient prior to clamp placement. A silicon central venous catheter was introduced via the internal jugular vein, and tunneled to exit between the scapulae. Catheters were attached to swivel connection systems, and animals placed in protective cloth jackets incorporating a swiveling system which protected venous access.
Graft function and body temperature were assessed twice daily by monitoring with a fully implantable telemetry device (Data Sciences International, St. Paul, Minn.) (electrocardiogram (EKG), right ventricular pressure and animal body temperature) implanted at the time of transplantation. Confirmatory abdominal ultrasounds were performed at the time of protocol biopsies and whenever an examiner appreciated decreased contractility, if EKG voltage or rate (<120 beats per minute) was decreased, or if developed pulse pressure (delta P) in the graft was decreased. Cardiac biopsies were performed by protocol on postoperative days 4, 7, 14, through a laparotomy incision using a core biopsy needle. Graft failure was defined as loss of palpable graft activity, with ultrasound confirmation of weak or absent myocardial contractility. Failed grafts were explanted promptly and examined histologically.
Three animals received Compound A as monotherapy at a dose of 5 mg/kg, two animals received Compound A as monotherapy at a dose of 10 mg/kg, and three animals received an equivalent volume of saline (control). Compound A was administered intravenously twice daily at 12 hour intervals (i.e., b.i.d.) starting at transplant. […] The dose on the first day was 12.5 mg/kg, then 10 mg/kg daily for 7 days, then 5 mg/kg daily for 7 days, then 2.5 mg/kg/day until graft rejection or animal sacrifice.

IL6 [7] = test: Cytometric Bead Array Human Inflammation Kit, serum/plasma on day of explant: IL6; assay type: in vivo, cynomologous monkeys
Protocol: as §1
Samples were assayed in the manner described in the manufacturer's protocol booklet; i.e., “Human Inflammation Kit—Instruction Manual” (BD Biosciences, Cat. No. 551811, pdf copy available at www.bdbiosciences.com). Briefly, assay standards were reconstituted with assay diluent and diluted in two fold steps by serial dilution. Capture beads were mixed and distributed into an appropriate number of 12×75 mm polystyrene tubes. Standards or samples were added to the tubes and incubated in the dark at room temperature for 1.5 hours. The incubated tubes were washed once and phycoerythrin (PE)-labeled detection antibody reagent was added. Samples were again incubated in the dark at room temperature for 1.5 hours. After one final wash, samples were resuspended in 300 uL of wash buffer. Flow cytometer data was acquired using a Becton Dickinson FACSCalibur and analyzed with Becton Dickinson CBA Software.

[8] = Homo sapiens, Macrophage, Compound A 10 nM, 24 hours, mean ± SD
[9] = Homo sapiens, Macrophage, Compound A 30 nM, 24 hours, mean ± SD
[10] = Homo sapiens, Macrophage, Compound A 300 nM, 24 hours, mean ± SD

## CCn1nc(Cc2ccccc2)cc1C1CCN(C[C@H]2C[C@H](N(C)[C@@H](C(=O)O)C(C)C)C[C@@H]2c2cccc(F)c2)CC1 [Compound A]
[1]; after cardiac allotransplantation, in contrast to the five control animals
  malaise: not to exhibit malaise
[1]; after transplant and during rejection of the graft
  symptoms of abdominal tenderness: did not exhibit any symptoms of abdominal tenderness
[1]; despite additional procedures on days 4 and 7-8
  recovery from surgery (how quickly normal activity levels resumed): recovered more quickly from surgery
[1]; first three days after allograft implantation, six of the seven animals treated with Compound A (5 or 10 mg/kg b.i.d. i.v., alone or with CsA)
  average temperature: below 37.5 °C
[1]; first three days after surgery
  average temperature difference versus control monkeys (saline, no immunosuppressive therapy): about one degree lower
  average temperature difference versus cyclosporin-only-treated animals: one half degree lower; also recorded: about 0.5 °C
[1]; monkeys with cardiac allografts, control (saline) ca. 38.5° C.
  average temperature over the first three days after surgery: circa 37.5 °C
[1]; of the seven animals treated with Compound A
  animals in which individual temperature elevations reached 38.5° C. on any occasion: 3
[1]
  monkeys that did not develop a fever (temperature greater than 38.5° C.): six of seven
[1]; listed as CCR5 antagonist
  monkeys that did not develop a fever (temperature greater than 38.5° C.): Six out of the seven
IL8
  IL8 cytokine levels at the time of graft rejection relative to CsA-only treated monkeys: did not indicate suppression of IL8 levels
[2]; Homo sapiens, Macrophage, Compound A 3 nM, 24 hours
  inhibition at 0.003 µM: 43%
[2]; [8]
  inhibition at 0.01 µM: 16.1%
[2]; [9]
  inhibition at 0.03 µM: 65.9%
[2]; Homo sapiens, Macrophage, Compound A 100 nM, 24 hours
  inhibition at 0.1 µM: 67.1%
[2]; [10]
  inhibition at 0.3 µM: 85.9%
[2]; human macrophages
  effect on IL6 mRNA up-regulation by RANTES: diminish IL1-β and IL6 up-regulation significantly; also recorded: dose-dependent
CCR5 receptor
  receptor occupancy at 0.1 µM: ~90%
IL6 [3]; serum post-transplantation, Compound A monotherapy 10 mg/kg/day b.i.d., M308, M627
  IL6 level, Day 0 Post: 63.7 pg/mL and 106.2 pg/mL
IL6 [3]; serum pre-transplantation, animals M308, M627 later given Compound A monotherapy 10 mg/kg/day b.i.d.
  IL6 level, Day 0 Pre: 4.6 pg/mL and 3.4 pg/mL
IL6 [3]; serum, Compound A monotherapy 10 mg/kg/day b.i.d., M308
  IL6 level, Day 8: 24.3 pg/mL
[4]; Homo sapiens, Macrophage, Compound A 3 nM, 24 hours, mean ± SD
  inhibition at 0.003 µM: 37.6%
[4]; [8]
  inhibition at 0.01 µM: 50.1%
[4]; [9]
  inhibition at 0.03 µM: 59%
[4]; Homo sapiens, Macrophage, Compound A 100 nM, 24 hours, mean ± SD
  inhibition at 0.1 µM: 76.8%
[4]; [10]
  inhibition at 0.3 µM: 80.6%
[4]; human macrophages
  effect on IL1-β mRNA up-regulation by RANTES: diminish IL1-β and IL6 up-regulation significantly; also recorded: dose-dependent
CCR5+ cells
  Infiltration of CCR5+ cells into cardiac allografts: inhibited
[5]
  trough plasma concentration (levels fell below target range at trough): < 100 nM
[6]; Compound A monotherapy 5 mg/kg i.v. b.i.d., n=3, controls 6±0.4 days (n=7), p=0.05
  Graft survival: 8.3 ± 0.6 days
[6]; M308, Compound A monotherapy at 10 mg/kg/day b.i.d.
  Explant Day (day of graft rejection): 8
[6]; M627, Compound A 10 mg/kg b.i.d., rescued day 9 with bolus steroids, combined therapy with CsA 43 days, from day 52 Compound A monotherapy
  Explant Day (day of graft rejection): 85
[6]; one animal: Compound A alone 10 mg/kg b.i.d., rescued day 9 with bolus steroids, combined therapy with CsA 43 days, CsA stopped day 52, Compound A continued
  day to which vigorous graft function persisted: 83 days and 78 days
IL6 [7]; M308, Compound A monotherapy at 10 mg/kg/day b.i.d., explant day 8
  IL6 on day of explant: 58 pg/mL
IL6 [7]; M627, Compound A 10 mg/kg b.i.d., steroid rescue day 9, combined therapy with CsA 43 days, Compound A monotherapy from day 52, explant day 85
  IL6 on day of explant: 20 pg/mL
IL6 [7]; monkeys treated with Compound A
  IL6 cytokine levels at the time of graft rejection relative to monkeys treated only with CsA: suppressed
